“Also recorded” adds a separate entry of the source.
What was measured:
[1] = system: brain endothelium / blood brain barrier; assay: In vivo two-photon imaging of mouse brain cortex after intravenous administration
Method: Briefly, animals are anaesthetized via intraperitoneal injections of ketamine/xylazine or via inhaled isoflurane. A region of the skull (3×3 mm) is gently removed with a high-speed drill and the underlying dura is removed. A small glass coverslip is placed over the skull to allow long term optical access for in vivo imaging. Labeling with fluorescent dyes is performed either via intravenous injections or topically application to the cortical surface for 20 min prior to glass cover placement. After recovery, in vivo images are acquired using a two-photon microscope (Bruker Technologies) equipped with a multimodal (fixed wavelength 1040 nm and tunable wavelength) InSight X3 two-photon laser (Spectra Physics) and 20× water immersion objective (Zeiss 1.0N.A.). The two-photon laser is appropriately tuned to excite particular fluorescent dyes and proteins as needed. In selected cases, following in vivo imaging, mice will be sacrificed and perfused for follow up immunohistochemistry and high-resolution confocal imaging (Leica SP8) to further confirm colocalization of dyes and cells expressing particular transporters.
One-month-old wild-type mice were anesthetized using a ketamine/xylazine solution at doses of 100 mg/kg and 10 mg/kg, respectively. The fur around the skull area was shaved, and buprenex (0.1 mg per kg) and carprofen (5 mg per kg) were administered subcutaneously. Mice were kept on a heating pad at 37° C., and anesthesia was periodically monitored. The skin was treated with povidone-iodine solution, followed by cleaning with ethanol, and eye ointment was applied. A small skin section was excised to expose the skull. Thinning of the skull was performed in a circular area, followed by delicately lifting of the remaining skull without harm to the underlying brain. Within the circular region, the dura was gently removed using fine forceps, and a 4 mm cover glass was softly pressed onto the brain surface and affixed to the skull. Fluorescent dyes were applied either through intravenous injections or topically to the cortical surface for 20 minutes before placing the glass cover. A customized head bar was attached either by adhesive (for acute imaging) or permanently implanted (using dental cement, for chronic imaging) onto the skull. Mice were imaged under a two-photon microscope (Prairie Technologies) with a mode-locked MaiTai tunable laser (Spectra Physics). Imaging was performed with a 20× water immersion objective (Zeiss, 1.0NA). Images were captured at depths up to 300 μm from the pial surface using excitation wavelengths ranging from 750 to 950 nm as previously described. Mice undergoing chronic imaging received a recovery period on a heating pad post-surgery, and buprenex (0.1 mg per kg) and carprofen (5 mg per kg) were administered for 3 days. […]

[2] = system: retinal endothelial cells; assay: Retinal endothelial labeling after intravitreal / intraocular injection; type: in vivo, mouse; conditions: intravitreal/intraocular injection (eEDiTS 50 μM in FIG. 14D)
Slco1a4 = biological target: T1, Slco1a4 (Mus musculus, UniProt Q9EP96); assay: Compound uptake in HEK293 cells transfected with Slco1a4; type: cell-based; set-up: FLAG; expressed in transfected cells
T1 sequence (Q9EP96 1-670): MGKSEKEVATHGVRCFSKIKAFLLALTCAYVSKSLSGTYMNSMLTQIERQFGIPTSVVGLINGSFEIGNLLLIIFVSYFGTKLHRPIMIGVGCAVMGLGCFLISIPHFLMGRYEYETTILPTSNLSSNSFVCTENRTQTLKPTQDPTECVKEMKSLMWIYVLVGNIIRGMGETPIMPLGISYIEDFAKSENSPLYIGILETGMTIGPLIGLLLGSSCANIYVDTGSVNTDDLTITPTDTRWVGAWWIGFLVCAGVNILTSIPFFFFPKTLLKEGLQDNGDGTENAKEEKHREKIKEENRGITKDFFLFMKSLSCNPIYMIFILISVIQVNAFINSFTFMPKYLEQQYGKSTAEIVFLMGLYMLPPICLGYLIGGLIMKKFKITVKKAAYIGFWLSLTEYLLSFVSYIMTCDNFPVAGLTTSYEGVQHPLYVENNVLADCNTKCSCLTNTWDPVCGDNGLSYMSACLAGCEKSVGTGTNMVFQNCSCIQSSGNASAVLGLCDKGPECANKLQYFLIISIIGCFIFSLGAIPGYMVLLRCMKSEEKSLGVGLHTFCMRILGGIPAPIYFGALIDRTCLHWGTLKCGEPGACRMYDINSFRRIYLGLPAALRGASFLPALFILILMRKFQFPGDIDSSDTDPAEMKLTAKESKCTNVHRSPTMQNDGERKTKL
Method: HEK293 cells are cultured and seeded at ~60% confluency in 24-well plates and are transiently transfected with 250 ng of a candidate transporter and 1 μL transfection reagent (JetPRIME). After 2 days, cells are washed and novel fluorescent probes at different concentrations are added to the transport medium and incubated at 37° C., for at least 30 minutes. To terminate the transport, cells are washed with PBS and fixed with 4% paraformaldehyde. The colocalization of probe uptake and cells expressing the transporters is investigated by immunostaining the transporter which has a fused FLAG tag, using anti-FLAG 488. Before confocal imaging, nuclei are labeled with Hoechst 33342 and cells are mounted and imaged on a Leica SP8 confocal microscope.
For in vitro experiments, HEK293 cells were cultured and seeded in 24-well plates, reaching approximately 60% confluency. For transient transfection, 250 ng of a candidate transporter plasmid and 1 μL of transfection reagent (JetPRIME) were added to the cells. After a 2-day incubation period, the cells were washed, and novel fluorescent probes were introduced into the transport medium at various concentrations. The cells were then incubated at 37° C., for a minimum of 30 minutes to allow for uptake. To stop the transport process, the cells were washed with PBS and fixed using 4% paraformaldehyde. Immunostaining of the transporter, which was fused with a FLAG tag, was performed using an anti-FLAG 488 antibody. Before confocal imaging, the cell nuclei were labeled with Hoechst 33342. Finally, the cells were mounted and imaged using a Leica SP8 confocal microscope.

NIH3T3 cells = assay: Assessment of pharmacological effects in vitro in NIH3T3 cells (tubulin staining, multinucleated cells); type: cell-based
From the text: Confocal microscopy of the different treatment groups allowed us to visualize Hoechst dye-labeled nuclei to quantify the proportion of cells with multinucleated phenotype which is known to occur with Colchicine treatments.

brain cell types = assay: In vivo two-photon imaging of mouse cortex after topical cortical administration of fluorophores; conditions: topical cortical administration 50 μM, Tie2-GFP endothelial reporter mice

Row | Compound | entry into non-endothelial cells ([1]; 2 hours post intravenous injection) | brain endothelial labeling after intravenous administration ([1]; IV 50 microliters at 20 mg/ml, 10 min to 130 min post injection) | interstitial space fluorescence / blood brain barrier crossing ([1]; IV, 10 min vs 130 min or 2 hours post injection) | punctate labeling in the endothelium ([1]; lower concentration IV in 120 μL of PBS, around 2 hours post injection) | retinal endothelial labeling [2] | uptake in Slco1a4 transfected HEK293 cells (Slco1a4; concentration not given) | preservation of pharmacological properties after conjugation (NIH3T3 cells; NIH3T3 cells) | cell morphology / multinucleated cells (NIH3T3 cells; NIH3T3 cells (FIG. 17A)) | pattern of α-tubulin immunofluorescence (NIH3T3 cells; NIH3T3 cells, 12 hours, varying concentrations (FIG. 17A)) | colocalization with GFP labeling (brain cell types) | uptake in Slco1a4 transfected HEK293 cells (Slco1a4; 10 μM)
1 | O=S(=O)([O-])c1cc(S(=O)(=O)O)ccc1C1=c2cc3c4c(c2Oc2cc(Br)ccc21)CCC[N+]=4CCC3 [Compound 1, 2-(12-bromo-1,2,3,5,6,7-hexahydrochromeno[2,3-f]pyrido[3,2,1-ij]quinolin-4-ium-9-yl)-5-sulfobenzenesulfonate] | does not enter non-endothelial cells; also recorded: does not enter other cells except for endothelial cells | marked uptake of the compound into the capillary endothelial wall; also recorded: robust brain endothelial labeling | located in the brain interstitial space; also recorded: marked increase in the interstitial space fluorescence | bright punctate labeling becomes apparent in the endothelium | rapid and highly specific labeling of retinal vasculature | only those cells expressing SLCO1A4 (as evidenced by anti-FLAG labeling-green) take up compound 1 |  |  |  |  | 
2 | COc1cc2c(c(OC)c1OC)-c1ccc(OC)c(=O)cc1C(NS(=O)(=O)c1ccc(-c3c4ccc(N(C)C)cc4[o+]c4cc(N(C)C)ccc34)c(S(=O)(=O)[O-])c1)CC2 (centres unmarked) [Compound 47, 2-(3,6-bis(dimethylamino)xanthylium-9-yl)-5-(N-(1,2,3,10-tetramethoxy-9-oxo-5,6,7,9-tetrahydrobenzo[a]heptalen-7-yl)sulfamoyl)benzenesulfonate] |  |  |  |  |  |  | retains its pharmacological properties | changes in cell morphology and presence of multinucleated cells | diffuse labeling pattern | precise colocalization between Colchicine-eEDiTS and GFP labeling | robust and selective uptake

Reference: US20260272895A1, “METHODS AND KITS FOR DELIVERY OF COMPOUNDS INTO CELLS” (Yale University, priority 2023, published 2026)
